Patent US20100184703A1, “USE OF PEPTIDE DERIVATIVES FOR TREATING PATHOLOGIES RESULTING FROM ISCHEMIA” (CHIESI FARMACEUTICI S.p.A., priority 2007, published 2010)
Peptide text beside a SMILES is read from it. * marks the point of attachment. X1 = COC(=O)CC(N*)C(=O)COc1c(F)cccc1F; Quinaldoyl = O=C(c1ccc2ccccc2n1)*

System: caspase-3
Assay: Dosage of caspase-3 activity in myocardial tissue, chronic ischemia (PMI) model
Type: in vivo, rat
Conditions: PMI 72 h
Protocol: The analyses were performed on 2 myocardial ischemia models: a chronic ischemia model and an acute ischemia model, followed by myocardial reperfusion after 30 min of occlusion.
Said models were realized with Wistar male rats (180-220 g). The coronary artery was ligatured according to Pfeffer et al protocol.
Briefly, the rats were anaesthetized by intraperitoneal administration of a mixture of Ketamine (150 mg/kg) and Xylazine (15 mg/kg), then intubated and mechanically ventilated. The animals were submitted to a left and median thoracotomy. An occlusion of the coronary artery was done with a silk wire (size: 7.0) at the more proximal point and below the auricle.
In the case of chronic ischemia, the ligature was maintained and the rib cage of the animal reclosed (PMI model for post myocardial infarction).
The animals were sacrificed by a pentobarbital lethal injection. […]
The supernatant was taken and divided into 2 tubes for of each sample. The tubes were placed at −80° C. before performing the spectrophotometric proteic dosage (BCA: cupper (II) sulphate+solution A of bicinchronic acid, DO measured at 550 nm) in transparent, with flat bottom, 96-well plates. […]

## COC(=O)CC(NC(=O)[C@H](C)NC(=O)[C@@H](NC(=O)[C@H](CC(=O)OC)NC(=O)[C@@H](NC(=O)c1ccc2ccccc2n1)C(C)C)C(C)C)C(=O)COc1c(F)cccc1F (stereo partly drawn) [D1, (3S,6S,9S,12S)-methyl 15-(2-(2,6-difluorophenoxy)acetyl)-3,9-diisopropyl-6-(2-methoxy-2-oxoethyl)-12-methyl-1,4,7,10,13-pentaoxo-1-(quinolin-2-yl)-2,5,8,11,14-pentaazaheptadecan-17-oate] (Quinaldoyl-VD(OMe)VA-X1)
pre-treated rats, 0.01 or 1 mg/kg
  caspase-3 activity: inhibition of the caspase-3 activity
Right ventricular (RV)
  caspase-3 basal activity: weak inhibition
